This is an account of results in article PMC7366784 (Medical Science Monitor : International Medical Journal of …, 2020).

Each structure is given as a SMILES string.

One data set has as its system C. trachomatis. The following applies: added to the replication phase of developmental cycle; cited from earlier work.
Data set [1] concerns MT-S247A (recombinant cHtrA mutant). It counts as in vitro ADME, C. trachomatis serovar D. The following applies: AMP 100 μg/mL, mutant 100 μg/mL, 37°C, 30 min.
A further data set deals with recombinant cHtrA. It counts as in vitro ADME, C. trachomatis serovar D. Conditions: AMP 100 μg/mL, cHtrA 100 μg/mL, 37°C, 30 min; Coomassie blue staining.
In data set [2] the test system is MT-H143A (recombinant cHtrA mutant). It counts as in vitro ADME, C. trachomatis serovar D. Conditions: AMP 100 μg/mL, mutant 100 μg/mL, 37°C, 30 min.

Consider `CC(C)C(NC(=O)[C@@H]1CCCN1C(=O)[C@@H](NC(=O)OC(C)(C)C)C(C)C)P(=O)(Oc1ccccc1)Oc1ccccc1` (stereo partly shown) [JO146], for which the “Effect on C. trachomatis” value in the data set on C. trachomatis is listed as “lethal to C. trachomatis”.

Take `CC[C@H](C)[C@H](NC(=O)[C@H](CCCCN)NC(=O)[C@H](CCC(=O)O)NC(=O)[C@H](CCCCN)NC(=O)[C@H](CO)NC(=O)[C@H](CCCCN)NC(=O)[C@H](CCCNC(=N)N)NC(=O)[C@H](Cc1ccccc1)NC(=O)[C@H](Cc1ccccc1)NC(=O)[C@H](CC(=O)O)NC(=O)CNC(=O)[C@H](CC(C)C)NC(=O)[C@@H](N)CC(C)C)C(=O)NCC(=O)N[C@@H](CCCCN)C(=O)N[C@@H](CCC(=O)O)C(=O)N[C@@H](Cc1ccccc1)C(=O)N[C@@H](CCCCN)C(=O)N[C@@H](CCCNC(=N)N)C(=O)N[C@H](C(=O)N[C@H](C(=O)N[C@@H](CCC(N)=O)C(=O)N[C@@H](CCCNC(=N)N)C(=O)N[C@H](C(=O)N[C@@H](CCCCN)C(=O)N[C@@H](CC(=O)O)C(=O)N[C@@H](Cc1ccccc1)C(=O)N[C@@H](CC(C)C)C(=O)N[C@@H](CCCNC(=N)N)C(=O)N[C@@H](CC(N)=O)C(=O)N[C@@H](CC(C)C)C(=O)N[C@H](C(=O)N1CCC[C@H]1C(=O)N[C@@H](CCCNC(=N)N)C(=O)N[C@H](C(=O)N[C@@H](CCC(=O)O)C(=O)N[C@@H](CO)C(=O)O)[C@@H](C)O)C(C)C)[C@@H](C)CC)C(C)C)[C@@H](C)CC` [LL-37]: the “Degradation of AMP by MT-S247A” value in data set [1] is on record as “unable to degrade LL-37”. Further, the “Degradation of AMP by 100 μg/mL recombinant cHtrA” value in the data set on recombinant cHtrA was “degraded all LL-37”. The “Degradation of AMP by MT-H143A” value in data set [2] is given as “unable to degrade LL-37”.
